Experimental findings from patent US20250353891A1 (MEDIMMUNE LIMITED, priority 2022, published 2025) are described below.

Read-outs that look alike come from different tables or passages of the source. Starred links: 1 amine or outer side, 2 acyl side, 3 side chain; linkers in the order of their positions; H or OH if unused. Non-standard residues stand in square brackets, D forms with d. Residues, ends and D or L forms follow the SMILES beside them. Groups on a side chain read outwards from the residue. *: point of attachment. γGlu = O=C(O)[C@H](CCC(=O)[*:2])N[*:1]; Stearoyl = CCCCCCCCCCCCCCCCCC(=O)*; Palmitoyl = CCCCCCCCCCCCCCCC(=O)*; αMeF = C[C@](N)(Cc1ccccc1)C(=O)O; PEG4 = NCCOCCOCCOCCOCCC(=O)O; Nle = CCCC[C@H](N)C(=O)O; PEG2 = NCCOCCOCCC(=O)O; AEEA = NCCOCCOCC(=O)O; Aib = CC(C)(N)C(=O)O

A short description of assay [1]: Mouse acute food intake study. It counts as in vivo. The following applies: male C57Bl/6 mice, s.c., cumulative food intake at 24 hr vs vehicle. As for the experimental part: Male C57Bl/6 mice obtained from Jackson Laboratories or Charles River at 8-9 weeks of age and were housed one per cage in BioDaq (Research Diets) cages. Mice were placed on Alpha Dri bedding, standard chow diet (Envigo, 2018) and given water pouches. Mice were allowed to acclimate for 1-2 weeks. Body weight was measured to ensure appropriate acclimation. After acclimation, mice were sham dosed a minimum of 2 times prior to initiation of food intake study. On study day, mice were placed in clean cage bottoms, weighed, and fasted for 6-8 hours. Mice were sorted into groups based on average 24-hour food intake data and body weight. 1-2 hours prior to lights out, mice were dosed subcutaneously with one vehicle or test peptide dissolved in an appropriate vehicle at 5 mL/kg. Mice were left undisturbed and allowed access to food and water for 48 hours. Automated food intake was monitored in the BioDaq system was monitored during this time. Discrete food intake data was exported into MS Excel from which cumulative food intake data was generated and analyzed.

Assay [2] deals with human glucagon receptor (hGCGR) (Homo sapiens, UniProt P47871). The assay can be described thus: cAMP production (HTRF) in CHO cells expressing hGCGR. Also on record: expressed in transfected cells. It counts as cell-based. The following applies: cAMP in CHO hGCGR cells, geometric mean, read-out: hGluc-R EC50. The procedure, abridged: (§1)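 Read-out: HTRF cAMP (anti-cAMP cryptate donor, cAMP-d2 acceptor in conjugate/lysis buffer), converted to % Delta F and fitted by 4-parameter logistic for EC50. Cell densities were 1×10^5 cells/mL (hGLP-1R) or 2×10^5 cells/mL (hGCGR). Stimulation lasted 30 min at room temperature.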
Chain of human glucagon receptor (hGCGR) (P47871 26-477): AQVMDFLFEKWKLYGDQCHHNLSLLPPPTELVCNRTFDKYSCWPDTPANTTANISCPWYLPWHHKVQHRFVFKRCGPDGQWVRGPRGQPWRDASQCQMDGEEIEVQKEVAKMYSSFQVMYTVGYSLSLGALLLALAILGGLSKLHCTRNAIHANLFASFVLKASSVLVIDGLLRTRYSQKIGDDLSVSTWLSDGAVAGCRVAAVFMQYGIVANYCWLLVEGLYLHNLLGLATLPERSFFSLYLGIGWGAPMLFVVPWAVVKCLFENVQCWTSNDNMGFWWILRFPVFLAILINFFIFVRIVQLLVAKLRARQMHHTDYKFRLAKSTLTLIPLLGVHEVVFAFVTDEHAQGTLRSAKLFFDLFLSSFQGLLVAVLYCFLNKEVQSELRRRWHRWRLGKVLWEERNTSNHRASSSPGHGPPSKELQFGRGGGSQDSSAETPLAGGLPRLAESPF

Assay [3] concerns the target human GLP-1 receptor (hGLP-1R) (Homo sapiens, UniProt P43220). Nature of the assay: cAMP production (HTRF) in CHO cells expressing hGLP-1R. The assay is classed as cell-based. Also on record: expressed in transfected cells. The following applies: for % Relative Potency Ratio: % GLP-1R activity relative to GLP-1 / % GlucR activity relative to glucagon; for EC50: cAMP in CHO hGLP-1R cells, geometric mean, read-out: hGLP-1R EC50. The procedure, abridged: as §1

The mark [4] stands for this setting: Table 6, peptides modified at position 17.
Where [5] appears, read: Table 7, peptides modified at position 20.

Chain of human GLP-1 receptor (hGLP-1R) (P43220 24-463): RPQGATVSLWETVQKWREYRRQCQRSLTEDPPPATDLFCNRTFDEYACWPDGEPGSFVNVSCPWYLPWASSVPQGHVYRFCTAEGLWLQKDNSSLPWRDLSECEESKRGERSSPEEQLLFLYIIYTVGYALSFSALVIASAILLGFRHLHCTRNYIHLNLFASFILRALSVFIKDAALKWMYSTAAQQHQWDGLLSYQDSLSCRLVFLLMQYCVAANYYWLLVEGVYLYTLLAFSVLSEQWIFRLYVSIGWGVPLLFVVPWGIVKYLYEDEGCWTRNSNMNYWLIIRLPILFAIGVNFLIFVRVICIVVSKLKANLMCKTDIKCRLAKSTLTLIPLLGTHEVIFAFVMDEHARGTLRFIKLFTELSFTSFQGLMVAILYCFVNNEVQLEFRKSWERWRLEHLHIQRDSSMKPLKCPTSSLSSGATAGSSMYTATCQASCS

As to `CCCCCCCCCCCCCCCCCC(=O)N[C@@H](CCC(=O)N[C@@H](CCC(=O)NCCOCCOCCC(=O)NCCOCCOCCC(=O)NCCCC[C@H](NC(=O)[C@H](CO)NC(=O)[C@H](CC(=O)O)NC(=O)[C@H](CC(C)C)NC(=O)C(C)(C)NC(=O)[C@H](CCCCN)NC(=O)[C@H](CO)NC(=O)[C@@H](NC(=O)[C@H](CC(=O)O)NC(=O)[C@H](CO)NC(=O)[C@@H](NC(=O)[C@](C)(Cc1ccccc1)NC(=O)[C@H](CO)NC(=O)CNC(=O)[C@H](CCC(N)=O)NC(=O)C(C)(C)NC(=O)[C@@H](N)Cc1c[nH]cn1)[C@@H](C)O)C(C)C)C(=O)N[C@@H](CCCNC(=N)N)C(=O)N[C@@H](C)C(=O)N[C@@H](CCC(N)=O)C(=O)N[C@@H](CC(=O)O)C(=O)N[C@@](C)(Cc1ccccc1)C(=O)N[C@H](C(=O)N[C@@H](CCC(N)=O)C(=O)NC(C)(C)C(=O)N[C@H](C(=O)N[C@@H](C)C(=O)N[C@@H](CC(N)=O)C(N)=O)[C@@H](C)CC)C(C)C)C(=O)O)C(=O)O` [Peptide 102] (H-H[Aib]QGS[αMeF]TSDVSK[Aib]LDSK([PEG2-PEG2-γGlu-γGlu-Stearoyl])RAQD[αMeF]VQ[Aib]IAN-NH2; N-terminus assumed), the “24 hr % Vehicle Food Intake” value in assay [1] (dose 10 nmol/kg) was determined as 81.9%. Moreover, in assay [2] (setting [4]), the 50% effective concentration (EC50) worked out at 26.5 pM. The “% Relative Potency Ratio” value in assay [3] (Table 6) amounted to 227.0.
For `CCCCCCCCCCCCCCCCCC(=O)N[C@@H](CCC(=O)N[C@@H](CCC(=O)NCCOCCOCCC(=O)NCCOCCOCCC(=O)NCCCC[C@H](NC(=O)[C@H](CO)NC(=O)[C@H](CC(=O)O)NC(=O)[C@H](CC(C)C)NC(=O)C(C)(C)NC(=O)[C@H](CCCCN)NC(=O)[C@H](CO)NC(=O)[C@@H](NC(=O)[C@H](CC(=O)O)NC(=O)[C@H](CO)NC(=O)[C@@H](NC(=O)[C@](C)(Cc1ccccc1)NC(=O)[C@H](CO)NC(=O)CNC(=O)[C@H](CCC(N)=O)NC(=O)[C@H](CO)NC(=O)[C@@H](N)Cc1c[nH]cn1)[C@@H](C)O)C(C)C)C(=O)N[C@@H](C)C(=O)N[C@@H](C)C(=O)N[C@@H](CCC(N)=O)C(=O)N[C@@H](CC(=O)O)C(=O)N[C@@](C)(Cc1ccccc1)C(=O)N[C@H](C(=O)N[C@@H](CCC(N)=O)C(=O)NC(C)(C)C(=O)N[C@@H](CC(C)C)C(=O)N[C@@H](CCC(=O)O)C(=O)N[C@@H](C)C(=O)NCC(=O)NCC(N)=O)C(C)C)C(=O)O)C(=O)O` [Peptide 96] (H-HSQGS[αMeF]TSDVSK[Aib]LDSK([PEG2-PEG2-γGlu-γGlu-Stearoyl])AAQD[αMeF]VQ[Aib]LEAGG-NH2; N-terminus assumed), in that order: 51.9%, 30.1 pM and 69.9.
On to `CCCCCCCCCCCCCCCC(=O)N[C@@H](CCC(=O)NCCOCCOCCOCCOCCC(=O)NCCCC[C@H](NC(=O)[C@@H](NC(=O)[C@H](CC(=O)O)NC(=O)[C@H](CC(C)C)NC(=O)[C@](C)(Cc1ccccc1)NC(=O)[C@H](CCCCN)NC(=O)[C@H](CO)NC(=O)[C@@H](NC(=O)[C@H](CC(=O)O)NC(=O)[C@H](CO)NC(=O)[C@@H](NC(=O)[C@H](Cc1ccccc1)NC(=O)[C@@H](NC(=O)CNC(=O)[C@H](CCC(N)=O)NC(=O)C(C)(C)NC(=O)[C@@H](N)Cc1c[nH]cn1)[C@@H](C)O)[C@@H](C)O)C(C)C)C(C)C)C(=O)N[C@@H](CCCNC(=N)N)C(=O)N[C@@H](C)C(=O)N[C@@H](CCC(N)=O)C(=O)N[C@@H](CC(=O)O)C(=O)N[C@@](C)(Cc1ccccc1)C(=O)N[C@H](C(=O)N[C@@H](CCC(=O)O)C(=O)NC(C)(C)C(=O)N[C@@H](CC(C)C)C(=O)N[C@@H](CCCC)C(=O)N[C@@H](CCC(=O)O)C(=O)N[C@H](C(N)=O)[C@@H](C)O)C(C)C)C(=O)O` [Peptide 68] (H-H[Aib]QGTFTSDVSK[αMeF]LDVK([PEG4-γGlu-Palmitoyl])RAQD[αMeF]VE[Aib]L[Nle]ET-NH2; N-terminus assumed), for which, in assay [1] (dose 10 nmol/kg), the “24 hr % Vehicle Food Intake” value is 74.2%. The results for the EC50 in assay [2] (setting [4]) and in assay [3] (setting [4]) were 4.67 pM and 1.1 pM, respectively. Also, the “% Relative Potency Ratio” value in assay [3] (Table 6) is on record as 8.4.
`CCCCCCCCCCCCCCCCCC(=O)N[C@@H](CCC(=O)N[C@@H](CCC(=O)NCCOCCOCC(=O)NCCOCCOCC(=O)NCCCC[C@H](NC(=O)[C@H](C)NC(=O)[C@H](C)NC(=O)[C@H](CCCNC(=N)N)NC(=O)[C@H](CO)NC(=O)[C@H](CC(=O)O)NC(=O)[C@H](CC(C)C)NC(=O)[C@](C)(Cc1ccccc1)NC(=O)[C@H](CCCCN)NC(=O)[C@H](CO)NC(=O)[C@@H](NC(=O)[C@H](CC(=O)O)NC(=O)[C@H](CO)NC(=O)[C@@H](NC(=O)[C@](C)(Cc1ccccc1)NC(=O)[C@H](CO)NC(=O)CNC(=O)[C@H](Cc1c[nH]cn1)NC(=O)C(C)(C)NC(=O)[C@@H](N)Cc1c[nH]cn1)[C@@H](C)O)C(C)C)C(=O)N[C@@H](CC(=O)O)C(=O)N[C@@](C)(Cc1ccccc1)C(=O)N[C@H](C(=O)N[C@@H](CCC(N)=O)C(=O)NC(C)(C)C(=O)N[C@H](C(=O)N[C@@H](C)C(=O)N[C@@H](CC(N)=O)C(=O)N[C@H](C(N)=O)[C@@H](C)O)[C@@H](C)CC)C(C)C)C(=O)O)C(=O)O` [Peptide 257] (H-H[Aib]HGS[αMeF]TSDVSK[αMeF]LDSRAAK([AEEA-AEEA-γGlu-γGlu-Stearoyl])D[αMeF]VQ[Aib]IANT-NH2): the “24 hr % Vehicle Food Intake” value stood at 94.7% in assay [1] (dose 3 nmol/kg) and 96.5% in assay [1] (dose 10 nmol/kg). Moreover, the results for the EC50 in assay [2] (setting [5]) and in assay [3] (setting [5]) were 1.66 pM and 7.35 pM, respectively. Moreover, the “% Relative Potency Ratio” value in assay [3] (Table 7) was 0.4.
With `CCCCCCCCCCCCCCCCCC(=O)N[C@@H](CCC(=O)N[C@@H](CCC(=O)NCCOCCOCCOCCOCCC(=O)NCCCC[C@H](NC(=O)[C@H](CO)NC(=O)[C@H](CC(=O)O)NC(=O)[C@H](CC(C)C)NC(=O)[C@](C)(Cc1ccccc1)NC(=O)[C@H](CCCCN)NC(=O)[C@H](CO)NC(=O)[C@@H](NC(=O)[C@H](CC(=O)O)NC(=O)[C@H](CO)NC(=O)[C@@H](NC(=O)[C@](C)(Cc1ccccc1)NC(=O)[C@H](CO)NC(=O)CNC(=O)[C@H](CCC(N)=O)NC(=O)C(C)(C)NC(=O)[C@@H](N)Cc1c[nH]cn1)[C@@H](C)O)C(C)C)C(=O)N[C@@H](C)C(=O)N[C@@H](C)C(=O)N[C@@H](CCC(N)=O)C(=O)N[C@@H](CC(=O)O)C(=O)N[C@@](C)(Cc1ccccc1)C(=O)N[C@H](C(=O)N[C@@H](CCC(=O)O)C(=O)NC(C)(C)C(=O)N[C@@H](CC(C)C)C(=O)N[C@@H](CCC(=O)O)C(=O)N[C@@H](C)C(=O)NCC(=O)NCC(N)=O)C(C)C)C(=O)O)C(=O)O` [Peptide 71] (H-H[Aib]QGS[αMeF]TSDVSK[αMeF]LDSK([PEG4-γGlu-γGlu-Stearoyl])AAQD[αMeF]VE[Aib]LEAGG-NH2), the “24 hr % Vehicle Food Intake” value in assay [1] (dose 10 nmol/kg) was found to be 80.6%. Further, the 50% effective concentration (EC50) in assay [2] (setting [4]) is 53.7 pM; in assay [3] (setting [4]) it was 2.17 pM. Further, in assay [3] (Table 6), the “% Relative Potency Ratio” value is 48.9.

The EC50 is the concentration needed to bring the measured effect to its halfway point.
